Earlier results, collected in US20150157610A1, “PHARMACEUTICAL COMPOSITION FOR TREATING INFLAMMATORY DISEASE” (OSAKA UNIVERSITY, priority 2012, published 2015).

System: fulminant myocarditis
Conditions: experimental, Non Patent Literature 2 and 3

## CCCCCCCCc1ccc(CCC(N)(CO)CO)cc1 [FTY720]
  efficacy against fulminant myocarditis: experimentally effective
